Active and inactive are the calls of the source. The rule behind the calls is not given here.
System: CCRIS mutagenicity, Ames/micronucleus/aberration tests
Assay: CCRIS mutagenicity studies
[1] = Test System: AMES SALMONELLA TYPHIMURIUM, Strain/Indicator: TA98, Metabolic Activation: NONE, Method: STANDARD PLATE
[2] = Test System: AMES SALMONELLA TYPHIMURIUM, Strain/Indicator: TA100, Metabolic Activation: NONE, Method: STANDARD PLATE
[3] = Test System: AMES SALMONELLA TYPHIMURIUM, Strain/Indicator: TA1537, Metabolic Activation: NONE, Method: STANDARD PLATE
[4] = Test System: AMES SALMONELLA TYPHIMURIUM, Strain/Indicator: TA1538, Metabolic Activation: NONE, Method: STANDARD PLATE
[5] = Test System: AMES SALMONELLA TYPHIMURIUM, Strain/Indicator: TA98, Metabolic Activation: HAMSTER, LIVER, S-9, AROCLOR 1254, Method: STANDARD PLATE
[6] = Test System: AMES SALMONELLA TYPHIMURIUM, Strain/Indicator: TA98, Metabolic Activation: RAT, LIVER, S-9, AROCLOR 1254, Method: STANDARD PLATE
[7] = Test System: AMES SALMONELLA TYPHIMURIUM, Strain/Indicator: TA100, Metabolic Activation: HAMSTER, LIVER, S-9, AROCLOR 1254, Method: STANDARD PLATE
[8] = Test System: AMES SALMONELLA TYPHIMURIUM, Strain/Indicator: TA100, Metabolic Activation: RAT, LIVER, S-9, AROCLOR 1254, Method: STANDARD PLATE
[9] = Test System: MOUSE LYMPHOMA, Strain/Indicator: L5178Y (TK+/TK-), Metabolic Activation: NONE, Method: SUSPENSION/PLATE
[10] = Test System: MOUSE LYMPHOMA, Strain/Indicator: L5178Y (TK+/TK-), Metabolic Activation: RAT, LIVER, S-9, AROCLOR 1254, Method: SUSPENSION/PLATE

`O.[Cu].[Cu]` was tested, and the mutagenic call (Test System: AMES SALMONELLA TYPHIMURIUM, Strain/Indicator: TA98, Metabolic Activation: NONE, Method: PREINCUBATION) was “inactive; negative”, the mutagenic call (Test System: AMES SALMONELLA TYPHIMURIUM, Strain/Indicator: TA98, Metabolic Activation: RAT, LIVER, S-9, KC 500, Method: PREINCUBATION) was “inactive; negative” and the mutagenic call (Test System: AMES SALMONELLA TYPHIMURIUM, Strain/Indicator: TA100, Metabolic Activation: NONE, Method: PREINCUBATION) was “inactive; negative”. For the same compound, the mutagenic call (Test System: AMES SALMONELLA TYPHIMURIUM, Strain/Indicator: TA100, Metabolic Activation: RAT, LIVER, S-9, KC 500, Method: PREINCUBATION) was “inactive; negative”, the mutagenic call (Test System: AMES SALMONELLA TYPHIMURIUM, Strain/Indicator: TA1535, Metabolic Activation: NONE, Method: PREINCUBATION) was “inactive; negative” and the mutagenic call (Test System: AMES SALMONELLA TYPHIMURIUM, Strain/Indicator: TA1535, Metabolic Activation: RAT, LIVER, S-9, KC 500, Method: PREINCUBATION) was “inactive; negative”. The mutagenic call (Test System: AMES SALMONELLA TYPHIMURIUM, Strain/Indicator: TA1537, Metabolic Activation: NONE, Method: PREINCUBATION) was “inactive; negative”, the mutagenic call (Test System: AMES SALMONELLA TYPHIMURIUM, Strain/Indicator: TA1537, Metabolic Activation: RAT, LIVER, S-9, KC 500, Method: PREINCUBATION) was “inactive; negative” and the mutagenic call (Test System: AMES SALMONELLA TYPHIMURIUM, Strain/Indicator: TA1538, Metabolic Activation: NONE, Method: PREINCUBATION) was “inactive; negative”. The mutagenic call (Test System: AMES SALMONELLA TYPHIMURIUM, Strain/Indicator: TA1538, Metabolic Activation: RAT, LIVER, S-9, KC 500, Method: PREINCUBATION) was “inactive; negative”, the mutagenic call (Test System: E. COLI, Strain/Indicator: WP2 UVRA, Metabolic Activation: NONE, Method: PREINCUBATION) was “inactive; negative” and the mutagenic call (Test System: E. COLI, Strain/Indicator: WP2 UVRA, Metabolic Activation: RAT, LIVER, S-9, KC 500, Method: PREINCUBATION) was “inactive; negative”.

In the case of `O=C(C(Cl)Cl)C(Cl)(Cl)Cl`, the mutagenic call [1] is reported as “active; positive” and the mutagenic call [2] is reported as “active; positive”.

In the case of `O[C@H]1[C@H]2O[C@H]2c2c(ccc3ccc4ccccc4c23)[C@@H]1O`, the mutagenic call (Test System: E. COLI, Strain/Indicator: CL101P, Metabolic Activation: NONE, Method: PREINCUBATION) is reported as “active; positive”, the mutagenic call (Test System: E. COLI, Strain/Indicator: CL102P, Metabolic Activation: NONE, Method: PREINCUBATION) is reported as “active; positive” and the mutagenic call (Test System: E. COLI, Strain/Indicator: CL103P, Metabolic Activation: NONE, Method: PREINCUBATION) is reported as “active; positive”. The mutagenic call (Test System: E. COLI, Strain/Indicator: CL104P, Metabolic Activation: NONE, Method: PREINCUBATION) was “active; positive”, the mutagenic call (Test System: E. COLI, Strain/Indicator: CL105P, Metabolic Activation: NONE, Method: PREINCUBATION) was “active; positive” and the mutagenic call (Test System: E. COLI, Strain/Indicator: CL106P, Metabolic Activation: NONE, Method: PREINCUBATION) was “active; positive”.

With `CN(C)CCn1cc[n+](C)c1/C=N/O` the mutagenic call (Test System: AMES SALMONELLA TYPHIMURIUM, Strain/Indicator: TA97, Metabolic Activation: NONE, Method: STANDARD PLATE) was “inactive; negative”, the mutagenic call (Test System: AMES SALMONELLA TYPHIMURIUM, Strain/Indicator: TA97, Metabolic Activation: S-9, Method: STANDARD PLATE) was “inactive; negative” and the mutagenic call [2] was “inactive; negative”. For the same compound, the mutagenic call (Test System: AMES SALMONELLA TYPHIMURIUM, Strain/Indicator: TA100, Metabolic Activation: S-9, Method: STANDARD PLATE) was “inactive; negative”, the mutagenic call (Test System: AMES SALMONELLA TYPHIMURIUM, Strain/Indicator: TA104, Metabolic Activation: NONE, Method: STANDARD PLATE) was “inactive; negative” and the mutagenic call (Test System: AMES SALMONELLA TYPHIMURIUM, Strain/Indicator: TA104, Metabolic Activation: S-9, Method: STANDARD PLATE) was “inactive; negative”. For the same compound, the mutagenic call [3] was “inactive; negative”, the mutagenic call (Test System: AMES SALMONELLA TYPHIMURIUM, Strain/Indicator: TA1537, Metabolic Activation: S-9, Method: STANDARD PLATE) was “inactive; negative” and the mutagenic call [4] was “inactive; negative”. For the same compound, the mutagenic call (Test System: AMES SALMONELLA TYPHIMURIUM, Strain/Indicator: TA1538, Metabolic Activation: S-9, Method: STANDARD PLATE) was “inactive; negative”.

In the case of `Oc1ccc2c(c1)OCO2`, the mutagenic call [5] is reported as “inactive; negative”, the mutagenic call [1] is reported as “inactive; negative” and the mutagenic call [6] is reported as “inactive; negative”. For the same compound, the mutagenic call [7] was “inactive; negative”, the mutagenic call [2] was “inactive; negative” and the mutagenic call [8] was “inactive; negative”. For the same compound, the mutagenic call (Test System: AMES SALMONELLA TYPHIMURIUM, Strain/Indicator: TA1535, Metabolic Activation: HAMSTER, LIVER, S-9, AROCLOR 1254, Method: STANDARD PLATE) was “inactive; negative”, the mutagenic call (Test System: AMES SALMONELLA TYPHIMURIUM, Strain/Indicator: TA1535, Metabolic Activation: NONE, Method: STANDARD PLATE) was “inactive; negative” and the mutagenic call (Test System: AMES SALMONELLA TYPHIMURIUM, Strain/Indicator: TA1535, Metabolic Activation: RAT, LIVER, S-9, AROCLOR 1254, Method: STANDARD PLATE) was “inactive; negative”. For the same compound, the mutagenic call (Test System: AMES SALMONELLA TYPHIMURIUM, Strain/Indicator: TA1537, Metabolic Activation: HAMSTER, LIVER, S-9, AROCLOR 1254, Method: STANDARD PLATE) was “inactive; negative”, the mutagenic call [3] was “inactive; negative” and the mutagenic call (Test System: AMES SALMONELLA TYPHIMURIUM, Strain/Indicator: TA1537, Metabolic Activation: RAT, LIVER, S-9, AROCLOR 1254, Method: STANDARD PLATE) was “inactive; negative”. For the same compound, the mutagenic call (Test System: AMES SALMONELLA TYPHIMURIUM, Strain/Indicator: TA1538, Metabolic Activation: HAMSTER, LIVER, S-9, AROCLOR 1254, Method: STANDARD PLATE) was “inactive; negative”, the mutagenic call [4] was “inactive; negative” and the mutagenic call (Test System: AMES SALMONELLA TYPHIMURIUM, Strain/Indicator: TA1538, Metabolic Activation: RAT, LIVER, S-9, AROCLOR 1254, Method: STANDARD PLATE) was “inactive; negative”. The mutagenic call [9] was “active; positive”, the mutagenic call [10] was “active; positive” and the mutagenic call (Test System: Mouse lymphoma, Strain/Indicator: L5178Y (tk+/tk-), Metabolic Activation: None, Method: Suspension/plate) was “active; positive”. For the same compound, the mutagenic call (Test System: Mouse lymphoma, Strain/Indicator: L5178Y (tk+/tk-), Metabolic Activation: Rat, Liver, S-9, Aroclor 1254, Method: Suspension/plate) was “active; positive”.

With `O=C1C=CC(=O)N1` the mutagenic call [5] was “active; positive”, the mutagenic call [1] was “active; positive” and the mutagenic call [6] was “active; positive”. For the same compound, the mutagenic call [7] was “inactive; negative”, the mutagenic call [2] was “inactive; negative” and the mutagenic call [8] was “active; positive”. The mutagenic call [9] was “active; positive. reevaluation of results: inconclusive” and the mutagenic call [10] was “active; positive. reevaluation of results: positive”.

— PubChem BioAssay AID1259407 (Chemical Carcinogenesis Research Information System (CCRIS), 2018)
